Measurements as given in US9944749B2, “Polycarbonates” (Valspar Sourcing, Inc., priority 2012, dated 2018).
Like-named read-outs stand apart in the source and are kept apart here.

How the values were obtained:
MCF-7, clone WS8, cells = assay: MCF-7 cell proliferation assay of estrogenic activity; assay type: cell-based, human
human estrogen receptor = biological target: T1, human estrogen receptor (Homo sapiens, UniProt P03372); assay: suitable in vitro assay whose results are directly correlated to the MCF-7 cell proliferation assay; assay type: cell-based; settings: in vitro assay correlated to MCF-7 assay through common reference compounds
T1 sequence (P03372 1-595): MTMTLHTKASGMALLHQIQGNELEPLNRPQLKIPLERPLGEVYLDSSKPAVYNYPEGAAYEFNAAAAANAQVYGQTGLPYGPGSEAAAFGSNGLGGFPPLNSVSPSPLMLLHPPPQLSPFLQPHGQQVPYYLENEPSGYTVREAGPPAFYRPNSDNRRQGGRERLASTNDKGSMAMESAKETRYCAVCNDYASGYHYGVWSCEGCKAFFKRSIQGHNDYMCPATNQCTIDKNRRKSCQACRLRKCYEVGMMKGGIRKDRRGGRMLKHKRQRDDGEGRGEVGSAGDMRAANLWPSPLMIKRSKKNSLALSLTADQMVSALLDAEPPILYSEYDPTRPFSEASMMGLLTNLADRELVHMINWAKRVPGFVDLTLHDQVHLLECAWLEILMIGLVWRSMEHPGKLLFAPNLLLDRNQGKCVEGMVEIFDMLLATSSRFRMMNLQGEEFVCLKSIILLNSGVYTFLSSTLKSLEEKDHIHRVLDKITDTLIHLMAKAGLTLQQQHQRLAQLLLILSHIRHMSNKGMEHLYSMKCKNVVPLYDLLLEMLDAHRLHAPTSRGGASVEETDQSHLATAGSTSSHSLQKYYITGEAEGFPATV

| Compound | estrogenic activity (human estrogen receptor) | also measured |
| --- | --- | --- |
| C[C@]12CC[C@@H]3c4ccc(O)cc4CC[C@H]3[C@@H]1CC[C@@H]2O [17β-estradiol] |  | Log RPE (MCF-7, clone WS8, cells; logarithmic (base 10) Relative Proliferative Effect relative to 17-beta estradiol, cell proliferation measured as total DNA, values 'expected or measured'): 2.00 |
| Oc1ccc(Cc2ccc(O)cc2)cc1 [Bisphenol F] |  | Log RPE (MCF-7, clone WS8, cells): −2 |
| Cc1cc(Cc2cc(C)c(O)c(C)c2)cc(C)c1O [Structure 6, 4,4′-methylenebis(2,6-dimethylphenol)] | do not exhibit appreciable estrogenic activity |  |
| CCCC(c1cc(C(C)(C)C)c(O)cc1C)c1cc(C(C)(C)C)c(O)cc1C [Structure 7, 4,4′-butylidenebis(2-t-butyl-5-methylphenol)] | do not exhibit appreciable estrogenic activity |  |
| CC(C)(C)c1cc(Cc2cc(C(C)(C)C)c(O)c(C(C)(C)C)c2)cc(C(C)(C)C)c1O [Structure 8, 4,4′-methylenebis(2,6-di-t-butylphenol)] | do not exhibit appreciable estrogenic activity |  |
| Cc1cc(Cc2cc(C)cc(C(C)(C)C)c2O)c(O)c(C(C)(C)C)c1 [Structure 9] | do not exhibit appreciable estrogenic activity |  |
| CC(C)(C)c1cc(O)c(C(C)(C)C)cc1O [Structure 12, 2,5-di-t-butylhydroquinone] | do not exhibit appreciable estrogenic activity |  |
